Test results taken from US10994015B2, “EGFR proteolysis targeting chimeric molecules and associated methods of use” (Arvinas Operations, Inc., priority 2016, dated 2021).

Legend:
[1] = target: EGFR Exon20NPG (Homo sapiens (Human), UniProt P00533, INS770NPG); test: TR-FRET assay for ERBB kinases; type: biochemical; details: geometric mean if measured more than once
Description: (§1) TR-FRET Assay for ERBB Kinases
(§2) All compounds and PROTACs were serially diluted in three-fold increments using 100% DMSO, followed by an intermediate 10-fold dilution using Buffer A (50 mM HEPES, pH 7.5, 50 mM NaCl, 10 mM MgCl2, 1 mM DTT, and 0.1% Pluronic F-68). Two microliters of serially diluted compound or PROTAC were then transferred to black 384-well Proxiplates (PerkinElmer, #6008260) using an Integra Viaflo96. Next, 10 uL of protein kinase in Buffer A was added to each well of the assay plate and pre-incubated with compound for 10 minutes. Kinase reactions were then initiated by addition of 5 uL substrate mix containing 3 mM ATP and 30 uM fluorescein-labeled Poly-GluTyr (Thermo Fisher, #PV3610) in Buffer A and allowed to proceed for 10 minutes at room temperature. Reactions were quenched by addition of a 5 uL mixture containing 5 nM LanthaScreen® Tb-pY20 Antibody (Thermo Fisher, #PV3552) and 40 mM EDTA in Buffer A. Assay plates were then read using a Synergy2 (Biotek Instruments, Winooski, Vt.) via excitation thru a 340/20 nm bandpass filter and emission collected thru 490/10 nm (donor) and 520/25 nm (acceptor) bandpass filters.

[2] = target: EGFR L858R/T790M/C797S (Homo sapiens (Human), UniProt P00533, C797S/L858R/T790M); test: TR-FRET assay for ERBB kinases; type: biochemical; details: geometric mean if measured more than once
Description: as §1
as §2, with “Two microliters of serially diluted compound or PROTAC were then transferred to black 384-well Proxiplates (PerkinElmer, #6008260) using an Integra Viaflo96.” left out

[3] = target: EGFR L858R/T790M (Homo sapiens (Human), UniProt P00533, L858R/T790M); test: TR-FRET assay for ERBB kinases; type: biochemical; details: geometric mean if measured more than once
Description: as §1
as §2, with “Two microliters of serially diluted compound or PROTAC were then transferred to black 384-well Proxiplates (PerkinElmer, #6008260) using an Integra Viaflo96.” left out

[4] = target: EGFR WT (Homo sapiens (Human), UniProt P00533); test: TR-FRET assay for ERBB kinases; type: biochemical; details: geometric mean if measured more than once
Description: as §1
as §2, with “Two microliters of serially diluted compound or PROTAC were then transferred to black 384-well Proxiplates (PerkinElmer, #6008260) using an Integra Viaflo96.” left out

[5] = target: EGFR L858R/T790M double mutant (H1975) (Homo sapiens (Human), UniProt P00533, L858R/T790M); test: EGFR protein degradation assay (Western blot); type: cell-based; details: 72 hours, 300 nM to 10 nM
Description: EGFR Protein Degradation assay
Cells expressing the appropriate form of EGFR were seeded in 6-well plates (300,000 cells per well) and allowed to adhere to the plate overnight. […] To harvest cells, media was removed and cells were washed once with ice-cold phosphate-buffered saline (PBS) prior to the addition of 400 μl lysis buffer (Cell Signaling Technology) supplemented with a protease inhibitor cocktail (Thermo Scientific). Cells were scraped from the plate and the cell lysate transferred to an Eppendorf tube and then clarified by a single spin at 10 000 rpm for 10 minutes. The protein concentration of each lysate was determined (BCA kit, Thermo Scientific) prior to the addition of loading buffer (Invitrogen) and reducing agent (Invitrogen). 10 μg protein of each lysate was loaded on an SDS/PAGE gel and run at 165V for 2 hours. Following transfer to a PVDF membrane (iBlot2, Thermo Fisher Scientific), the membrane was blocked in Tris-buffered saline containing 0.1% Tween-20 (TBS-T) and supplemented with 5% powdered milk for 1 hour. Membranes were then probed with EGFR and tubulin (loaded control) primary antibodies in TBS-T containing 3% bovine serum albumin (BSA) overnight at 4° C. Membranes were washed thrice with TBS-T before incubation with secondary antibody in TBS-T containing 3% bovine serum albumin (BSA) and incubated for 1 hour at room temperature. Following 3 further washes with TBS, membrane proteins of interest were detected by enzyme-linked chemiluminescence (ECL) using a Chemidoc (Bio-Rad).

EGFR WT, sequence (P00533 25-1210): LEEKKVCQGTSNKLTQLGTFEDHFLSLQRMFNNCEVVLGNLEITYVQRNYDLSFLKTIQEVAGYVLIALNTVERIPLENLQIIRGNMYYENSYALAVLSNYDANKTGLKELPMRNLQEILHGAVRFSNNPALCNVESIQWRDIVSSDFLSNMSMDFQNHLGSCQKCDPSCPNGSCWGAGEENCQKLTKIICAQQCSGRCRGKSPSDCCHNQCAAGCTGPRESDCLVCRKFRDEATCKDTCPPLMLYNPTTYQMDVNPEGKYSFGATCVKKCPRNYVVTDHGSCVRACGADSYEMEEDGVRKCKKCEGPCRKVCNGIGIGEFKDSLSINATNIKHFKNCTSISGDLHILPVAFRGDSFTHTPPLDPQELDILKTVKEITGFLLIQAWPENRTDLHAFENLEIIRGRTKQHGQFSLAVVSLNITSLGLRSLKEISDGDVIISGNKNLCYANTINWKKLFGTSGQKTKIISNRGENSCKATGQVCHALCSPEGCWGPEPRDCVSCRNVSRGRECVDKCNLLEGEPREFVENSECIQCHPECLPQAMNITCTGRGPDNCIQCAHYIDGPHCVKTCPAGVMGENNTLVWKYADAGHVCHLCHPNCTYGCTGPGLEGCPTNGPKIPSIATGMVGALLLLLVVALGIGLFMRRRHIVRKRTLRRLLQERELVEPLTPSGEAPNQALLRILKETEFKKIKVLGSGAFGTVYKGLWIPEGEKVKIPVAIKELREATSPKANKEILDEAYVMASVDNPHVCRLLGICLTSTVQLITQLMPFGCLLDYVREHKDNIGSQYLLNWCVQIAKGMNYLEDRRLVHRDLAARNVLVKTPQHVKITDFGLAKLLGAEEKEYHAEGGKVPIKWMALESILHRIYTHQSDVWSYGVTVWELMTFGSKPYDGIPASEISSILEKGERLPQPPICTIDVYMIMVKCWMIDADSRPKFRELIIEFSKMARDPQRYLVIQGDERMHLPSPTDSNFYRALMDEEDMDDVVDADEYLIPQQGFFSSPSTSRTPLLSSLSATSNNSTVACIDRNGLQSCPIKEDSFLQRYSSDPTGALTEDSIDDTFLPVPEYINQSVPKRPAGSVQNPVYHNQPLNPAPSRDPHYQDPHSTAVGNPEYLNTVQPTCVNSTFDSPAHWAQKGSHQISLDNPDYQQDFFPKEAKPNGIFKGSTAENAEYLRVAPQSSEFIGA
EGFR Exon20NPG, sequence (P00533 other isoform, or with tags, fused parts or gaps del 1-694/ins NPG behind 770 limits assumed): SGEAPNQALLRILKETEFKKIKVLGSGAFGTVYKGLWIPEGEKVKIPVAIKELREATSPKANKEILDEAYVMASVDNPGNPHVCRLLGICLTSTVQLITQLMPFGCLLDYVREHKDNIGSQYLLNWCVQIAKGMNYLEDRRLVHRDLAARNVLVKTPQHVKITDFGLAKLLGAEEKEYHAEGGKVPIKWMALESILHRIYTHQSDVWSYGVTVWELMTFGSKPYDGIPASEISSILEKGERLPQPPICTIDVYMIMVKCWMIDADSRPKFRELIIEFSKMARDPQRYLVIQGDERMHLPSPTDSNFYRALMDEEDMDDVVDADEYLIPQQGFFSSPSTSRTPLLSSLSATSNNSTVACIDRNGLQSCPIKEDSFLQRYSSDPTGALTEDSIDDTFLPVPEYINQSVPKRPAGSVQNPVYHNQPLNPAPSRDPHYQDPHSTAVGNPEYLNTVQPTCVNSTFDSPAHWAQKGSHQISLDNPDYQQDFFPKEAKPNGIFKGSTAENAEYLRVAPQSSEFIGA
EGFR L858R/T790M double mutant (H1975), sequence (P00533 25-1210 T790M/L858R): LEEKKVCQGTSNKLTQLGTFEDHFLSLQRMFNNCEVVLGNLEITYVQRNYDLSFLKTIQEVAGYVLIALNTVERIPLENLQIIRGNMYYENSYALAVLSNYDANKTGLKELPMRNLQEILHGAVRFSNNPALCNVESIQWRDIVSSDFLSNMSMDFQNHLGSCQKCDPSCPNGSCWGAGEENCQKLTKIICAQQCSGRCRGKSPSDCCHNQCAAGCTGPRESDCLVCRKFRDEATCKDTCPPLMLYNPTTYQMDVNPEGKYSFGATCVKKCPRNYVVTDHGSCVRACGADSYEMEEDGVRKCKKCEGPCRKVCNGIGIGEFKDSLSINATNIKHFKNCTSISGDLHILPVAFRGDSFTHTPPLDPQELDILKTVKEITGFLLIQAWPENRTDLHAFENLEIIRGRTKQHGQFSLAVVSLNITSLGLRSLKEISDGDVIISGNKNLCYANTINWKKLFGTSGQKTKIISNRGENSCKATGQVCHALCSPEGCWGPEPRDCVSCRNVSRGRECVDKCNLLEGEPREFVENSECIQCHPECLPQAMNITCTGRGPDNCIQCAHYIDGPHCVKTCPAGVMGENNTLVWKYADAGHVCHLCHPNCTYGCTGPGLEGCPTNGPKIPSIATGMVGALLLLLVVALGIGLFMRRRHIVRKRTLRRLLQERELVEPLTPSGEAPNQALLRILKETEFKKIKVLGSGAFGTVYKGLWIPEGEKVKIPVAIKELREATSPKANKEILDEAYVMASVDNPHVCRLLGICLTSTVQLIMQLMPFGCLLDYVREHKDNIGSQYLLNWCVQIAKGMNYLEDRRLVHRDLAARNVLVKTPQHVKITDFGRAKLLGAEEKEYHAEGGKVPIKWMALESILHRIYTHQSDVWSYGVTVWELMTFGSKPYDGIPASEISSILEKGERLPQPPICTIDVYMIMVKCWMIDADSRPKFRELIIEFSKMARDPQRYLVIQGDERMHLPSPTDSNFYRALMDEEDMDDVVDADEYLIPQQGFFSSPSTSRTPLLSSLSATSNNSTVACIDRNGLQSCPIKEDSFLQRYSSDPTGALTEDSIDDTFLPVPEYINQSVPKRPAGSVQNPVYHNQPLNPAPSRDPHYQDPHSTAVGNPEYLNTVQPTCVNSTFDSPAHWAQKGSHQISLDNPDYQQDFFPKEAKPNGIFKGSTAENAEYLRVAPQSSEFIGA
EGFR L858R/T790M, sequence (P00533 25-1210 T790M/L858R): as above

Structure (SMILES)	IC50 [1]	IC50 [2]	IC50 [3]	IC50 [4]	EGFR protein remaining, EGFR L858R/T790M double mutant [5]
Cc1ncsc1-c1ccc([C@H](C)NC(=O)[C@H]2C[C@H](O)CN2C(=O)[C@@H](NC(=O)COCCOCCOCCOCCOc2ccc(-c3nccc(Nc4cc5c(cn4)nc(C)n5C(C)C)n3)cc2)C(C)(C)C)cc1 [compound 279]	> 30 µM	> 30 µM	29 µM	16 µM	
Cc1ncsc1-c1ccc([C@H](C)NC(=O)[C@H]2C[C@H](O)CN2C(=O)[C@@H](NC(=O)COCCCOCCCN2CCOC3(CCN(c4nccc(Nc5cc6c(cn5)nc(C)n6C(C)C)n4)CC3)C2)C(C)(C)C)cc1 [compound 285]		17 µM	35 µM	26 µM	
Cc1ncsc1-c1ccc([C@H](C)NC(=O)[C@H]2C[C@H](O)CN2C(=O)[C@@H](NC(=O)COCCN2CCN(CCCC#Cc3cccc4c3C(=O)N(C(C(=O)Nc3nccs3)c3cc(F)ccc3O)C4)CC2)C(C)(C)C)cc1 (stereo partly shown) [compound 91]	8.3 µM	0.66 µM	4.7 µM	4.3 µM	C (>80% EGFR protein remaining after 72 hours of incubation with the test compound at a concentration of 300 nM)
Cc1ncsc1-c1ccc(CNC(=O)[C@@H]2C[C@@H](O)CN2C(=O)C(C(C)C)N2Cc3ccccc3C2=O)c(OCCOCCOCCOCCOc2ccc(-c3nccc(Nc4cc5c(cn4)nc(C)n5C(C)C)n3)cc2)c1 (stereo partly shown) [compound 281]	> 30 µM	15 µM	> 30 µM	12 µM	
Cc1ncsc1-c1ccc(CNC(=O)[C@@H]2C[C@@H](O)CN2C(=O)C(C(C)C)N2Cc3ccccc3C2=O)c(OCCCCOc2ccc(-c3nccc(Nc4cc5c(cn4)nc(C)n5C(C)C)n3)cc2)c1 (stereo partly shown) [compound 277]	> 30 µM	> 30 µM	> 30 µM	> 30 µM	C (>80% EGFR protein remaining after 72 hours of incubation with the test compound at a concentration of 300 nM)
O=C1CCC(N2C(=O)c3ccc(N4CCN(CCCC#Cc5cccc6c5C(=O)N(C(C(=O)Nc5nccs5)c5cc(F)ccc5O)C6)CC4)cc3C2=O)C(=O)N1 (stereo not shown) [compound 96]	2.5 µM	4.6 µM	10 µM	1.9 µM	C (>80% EGFR protein remaining after 72 hours of incubation with the test compound at a concentration of 300 nM)
O=C1CCC(N2C(=O)c3ccc(N4CCN(CC5CCN(CC#Cc6cccc7c6C(=O)N(C(C(=O)Nc6nccs6)c6cc(F)ccc6O)C7)CC5)CC4)cc3C2=O)C(=O)N1 (stereo not shown) [compound 293]		0.64 µM	4.2 µM	1.7 µM	
COC1CCN(c2nccc(Nc3cc4c(cn3)nc(COCCN3CCN(CCOCC(=O)N[C@H](C(=O)N5C[C@H](O)C[C@H]5C(=O)N[C@@H](C)c5ccc(-c6scnc6C)cc5)C(C)(C)C)CC3)n4C(C)C)n2)CC1 [compound 86]	24 µM	2.4 µM	12 µM	> 30 µM	C (>80% EGFR protein remaining after 72 hours of incubation with the test compound at a concentration of 300 nM)
O=C1CCC(N2C(=O)c3cccc(NCCOCCOCC#Cc4cccc5c4C(=O)N([C@@H](C(=O)Nc4nccs4)c4cc(F)ccc4O)C5)c3C2=O)C(=O)N1 (stereo partly shown) [compound 264]	24 µM	1.1 µM	> 30 µM	4.2 µM	C (>80% EGFR protein remaining after 72 hours of incubation with the test compound at a concentration of 300 nM)
Cc1ncsc1-c1ccc([C@H](C)NC(=O)[C@H]2C[C@H](O)CN2C(=O)[C@@H](NC(=O)COCCOCCOc2ccc(-c3nccc(Nc4cc5c(cn4)nc(C)n5C(C)C)n3)cc2)C(C)(C)C)cc1 [Example 276, (2R,4S)-4-hydroxy-1-((S)-2-(2-(2-(2-(4-(4-((1-isopropyl-2-methyl-1H-imidazo[4,5-c]pyridin-6-yl)amino)pyrimidin-2-yl)phenoxy)ethoxy)ethoxy)acetamido)-3,3-dimethylbutanoyl)-N—((S)-1-(4-(4-methylthiazol-5-yl)phenyl)ethyl)pyrrolidine-2-carboxamide]	> 30 µM	29 µM	23 µM	20 µM	C (>80% EGFR protein remaining after 72 hours of incubation with the test compound at a concentration of 300 nM)
COC1CCN(c2nccc(Nc3cc4[nH]c(COCCN5CCN(c6ccc7c(c6)C(=O)N(C6CCC(=O)NC6=O)C7=O)CC5)nc4cn3)n2)CC1 (stereo not shown) [compound 288]		2 µM	6.9 µM	5.9 µM	
COC1CCN(c2nccc(Nc3cc4c(cn3)nc(COCCN3CCN(c5ccc6c(c5)C(=O)N(C5CCC(=O)NC5=O)C6=O)CC3)n4C(C)(C)C)n2)CC1 (stereo not shown) [compound 287]		0.016 µM	0.074 µM	6.7 µM	
Cc1ncsc1-c1ccc([C@H](C)NC(=O)[C@H]2C[C@H](O)CN2C(=O)[C@@H](NC(=O)COCCOCCOCCOc2ccc(-c3nccc(Nc4cc5c(cn4)nc(C)n5C(C)C)n3)cc2)C(C)(C)C)cc1 [compound 278]	> 30 µM	> 30 µM	> 30 µM	30 µM	
Cc1ncsc1-c1ccc([C@H](C)NC(=O)[C@@H]2C[C@@H](O)CN2C(=O)[C@@H](NC(=O)COCCCOCCCN2CCC3(CC2)CCN(c2nccc(Nc4cc5c(cn4)nc(C)n5C(C)C)n2)CC3)C(C)(C)C)cc1 [Example 282, (2S,4R)-4-hydroxy-1-((S)-2-(2-(3-(3-(9-(4-((1-isopropyl-2-methyl-1H-imidazo[4,5-c]pyridin-6-yl)amino)pyrimidin-2-yl)-3,9-diazaspiro[5.5]undecan-3-yl)propoxy)propoxy)acetamido)-3,3-dimethylbutanoyl)-N—((S)-1-(4-(4-methylthiazol-5-yl)phenyl)ethyl)pyrrolidine-2-carboxamide]	> 30 µM	23 µM	> 30 µM	12 µM	
COC1CCN(c2nccc(Nc3cc4c(cn3)nc(-c3ccc(CN5CCN(CCOc6ccc7c(c6)C(=O)N(C6CCC(=O)NC6=O)C7=O)CC5)cc3)n4C(C)C)n2)CC1 (stereo not shown) [Example 286, 2-(2,6-dioxopiperidin-3-yl)-5-(2-(4-(4-(1-isopropyl-6-((2-(4-methoxypiperidin-1-yl)pyrimidin-4-yl)amino)-1H-imidazo[4,5-c]pyridin-2-yl)benzyl)piperazin-1-yl)ethoxy)isoindoline-1,3-dione]		0.17 µM	0.48 µM	7.3 µM	
COC1(CCN2CCN(CCCOCCCOCC(=O)N[C@H](C(=O)N3C[C@H](O)C[C@H]3C(=O)N[C@@H](C)c3ccc(-c4scnc4C)cc3)C(C)(C)C)CC2)CCN(c2nccc(Nc3cc4c(cn3)nc(C)n4C(C)C)n2)CC1 [Example 292, (2S,4R)-4-hydroxy-1-((S)-2-(2-(3-(3-(4-(2-(1-(4-((1-isopropyl-2-methyl-1H-imidazo[4,5-c]pyridin-6-yl)amino)pyrimidin-2-yl)-4-methoxypiperidin-4-yl)ethyl)piperazin-1-yl)propoxy)propoxy)acetamido)-3,3-dimethylbutanoyl)-N—((S)-1-(4-(4-methylthiazol-5-yl)phenyl)ethyl)pyrrolidine-2-carboxamide]		11 µM	19 µM	39 µM	
